Where only a bound is given, the exact number is not on record here.

16 molecules from ChEMBL document CHEMBL4888484, “Replenishing the malaria drug discovery pipeline: Screening and hit evaluation of the MMV Hit Generation Library 1 (HGL1) against asexual blood stage Plasmodium falciparum ,using a nano luciferase reporter read-out” (2022) can be followed below.

A short description of data set [1]: Re-testing in dose-response curve in HepG2 cytotoxicity assay, at 72h. Type of data set: toxicity, cell-based. As to conditions: human, HepG2 cells. Set-up: timepoint 72 hour.
The test system of data set [2] is Plasmodium falciparum. Description: Hit confirmation in dose-response curve in NF54 nanoGlo assay, at 12h. Type of data set: functional, organism-based, Erythrocyte. Also noted: timepoint 12 hour.
The subject of data set [3] is Plasmodium falciparum. The data set is described as follows: Hit confirmation in dose-response curve in Dd2 pLDH assay, at 72h. Type of data set: functional, organism-based. Set-up: timepoint 72 hour. Particulars: Dd2, Erythrocyte.
The test system of data set [4] is Plasmodium falciparum. The data set is described as follows: Hit confirmation in dose-response curve in NF54 pLDH assay, at 72h. Type of data set: functional, organism-based. Also noted: timepoint 72 hour. Particulars: NF54, Erythrocyte.
In data set [5] the test system is Plasmodium falciparum. The data set is described as follows: Hit confirmation in dose-response curve in NF54 nanoGlo assay, at 72h. Type of data set: functional, organism-based, Erythrocyte. Set-up: timepoint 72 hour.
The test system of data set [6] is Plasmodium falciparum. The data set is described as follows: Re-testing in dose-response curve in 3D7 pLDH assay, at 72h. Type of data set: functional, organism-based. Set-up: timepoint 72 hour. Particulars: 3D7, Erythrocyte.
The nature of data set [7]: Hit confirmation in dose-response curve in HepG2 cytotoxicity assay, at 72h. Type of data set: toxicity, cell-based. Particulars: human, HepG2 cells. Also noted: timepoint 72 hour.
Where [8] appears, read: Plasmodium falciparum, NF54, Erythrocyte, 12 h.
[9] abbreviates: Plasmodium falciparum, NF54, Erythrocyte, 72 h.

For `c1cc(N2CC[C@@]3(CCCNC3)C2)c2sccc2n1`, the figures for the IC50 at 72 h in data set [1] and in data set [7] were above 14.2 µM and above 10 µM, respectively. Besides, the half-inhibitory concentration (IC50) in data set [2] (setting [8]) worked out at 0.617 µM; in data set [3], 0.398 µM; in data set [4], 0.389 µM; in data set [5] (setting [9]), 0.479 µM; in data set [6], 0.58 µM.

Turning to `CC1(C)OCc2cc(CNc3ccc4oc(=O)[nH]c4c3)ccc2O1`, the IC50 at 72 h was 20.4 µM in data set [1] and above 10 µM in data set [7]. The IC50 in data set [2] (setting [8]) is 0.851 µM; in data set [3], 0.661 µM; in data set [4] it was 0.759 µM; in data set [5] (setting [9]) it was 0.55 µM; in data set [6] it was 0.267 µM.

As to `CC(C)c1ccc(-c2nc(CN3CCCCC3)cc(CN3CCCCC3)c2O)cc1`, the IC50 at 72 h in data set [1] is above 25 µM; in data set [7], above 10 µM. For the same molecule, the IC50 came out at 1.17 µM in data set [2] (erythrocyte); 1.23 µM in data set [3]; 2.4 µM in data set [4]; 0.813 µM in data set [5] (erythrocyte); 1.13 µM in data set [6].

For `N#Cc1cc(S(=O)(=O)NCCN(C2CC2)S(=O)(=O)c2ccc(Cl)c(C#N)c2)ccc1Cl`, the IC50 at 72 h in data set [1] was 13.6 µM; in data set [7], above 10 µM. In addition, the IC50 came out at 2.82 µM in data set [2] (setting [8]); 2 µM in data set [3]; 3.31 µM in data set [4]; 2.04 µM in data set [5] (setting [9]); 1.1 µM in data set [6].

`CCCCN(CC)CCNC(=O)C1CCN(C2=NS(=O)(=O)C(c3ccc(OC)cc3)=C2C)CC1`: the values for the IC50 at 72 h in data set [1] and in data set [7] were above 25 µM and above 10 µM, respectively. Besides, the IC50 was above 10 µM in data set [2] (setting [8]); 1.32 µM in data set [3]; 1.2 µM in data set [4]; 3.02 µM in data set [5] (setting [9]); 0.702 µM in data set [6].

For the molecule `Cc1ccc(Nc2ccc(N3CCNCC3)nn2)nc1`, the IC50 at 72 h in data set [1] was above 25 µM; in data set [7], above 10 µM. Moreover, the IC50 in data set [2] (setting [8]) worked out at 3.09 µM; in data set [3], 1.74 µM; in data set [4], 3.16 µM; in data set [5] (setting [9]) it was 1.58 µM; in data set [6] it was 5.09 µM.

In the case of `Clc1ccc(Cn2cc(CNCCCn3ccnc3)c3ccccc32)c(Cl)c1`, the half-maximal inhibitory concentration (IC50) at 72 h in data set [1] was 3.9 µM; in data set [7], above 10 µM. In addition, the IC50 in data set [2] (setting [8]) is 1.51 µM; in data set [3], 1.17 µM; in data set [4], 0.562 µM; in data set [5] (setting [9]) it was 0.741 µM; in data set [6], around 0.467 µM.

Regarding `Cc1c([C@@H](NCc2ncccc2O)C(C)C)oc2ccccc12`, the values for the IC50 at 72 h in data set [1] and in data set [7] were above 25 µM and above 10 µM, respectively. The IC50 was determined as 0.407 µM in data set [2] (setting [8]); 0.602 µM in data set [3]; 0.832 µM in data set [4]; 0.275 µM in data set [5] (setting [9]); 0.291 µM in data set [6].

In the case of `Cc1noc(C)c1CN1C[C@@H]2Oc3cc(F)ccc3C(=O)N(C)[C@@H]2C1`, the values for the IC50 at 72 h in data set [1] and in data set [7] were above 25 µM and above 10 µM, respectively. Besides, the IC50 stood at 1.58 µM in data set [2] (setting [8]); 1 µM in data set [3]; 1.02 µM in data set [4]; 0.724 µM in data set [5] (setting [9]); 0.488 µM in data set [6].

With `C[C@H](N)c1ccc(Nc2ncc3cc(-c4ccncc4)ccc3n2)cc1`, the IC50 at 72 h in data set [1] is 11.4 µM; in data set [7], above 10 µM. In addition, the IC50 was above 10 µM in data set [2] (setting [8]); 1.2 µM in data set [3]; 2.69 µM in data set [4]; 1.1 µM in data set [5] (setting [9]); 1.05 µM in data set [6].

Take `Nc1ncc(C(=O)N2CCC3(CCCCCC3)C2)s1`: the 50% inhibitory concentration (IC50) at 72 h was above 25 µM in data set [1] and above 10 µM in data set [7]. Further, the IC50 in data set [2] (setting [8]) stood at 1 µM; in data set [3] it was 1.12 µM; in data set [4], 0.871 µM; in data set [5] (setting [9]), 0.832 µM; in data set [6], 0.575 µM.

Consider `CCOc1cccc(-c2ccc3nc(-c4cccc(OC)c4)c(CCC(=O)NCCN4CCCC4)n3c2)c1`, for which the IC50 at 72 h is 15.9 µM in data set [1] and above 10 µM in data set [7]. The IC50 in data set [2] (setting [8]) turned out to be 7.24 µM; in data set [3], 1.2 µM; in data set [4], 0.282 µM; in data set [5] (setting [9]) it was 0.309 µM; in data set [6], 0.0548 µM.

As to `Cc1ccc2c(c1)CCCN2C(=O)CN1CC=C(c2cnn(C)c2)CC1`, the IC50 at 72 h was above 25 µM in data set [1] and above 10 µM in data set [7]. For the same molecule, the half-inhibitory concentration (IC50) was above 10 µM in data set [2] (setting [8]); 1.74 µM in data set [3]; 3.8 µM in data set [4]; 3.72 µM in data set [5] (setting [9]); 0.777 µM in data set [6].

On to `CN1CCCN(c2ccc(NC(=O)c3nn(-c4ccccc4)c(=O)c4ccccc34)cc2F)CC1`, for which the IC50 at 72 h in data set [1] is 7.35 µM; in data set [7], above 10 µM. For the same molecule, the IC50 in data set [2] (setting [8]) was found to be 2.51 µM; in data set [3], 1.91 µM; in data set [4], 2.1 µM; in data set [5] (setting [9]), 1.38 µM; in data set [6] it was 1.15 µM.

In the case of `CCC1=C(c2ccc(C)cc2)S(=O)(=O)N=C1N1CCC(C(=O)NCCN2CCCC[C@@H]2C)CC1`, the IC50 at 72 h in data set [1] was above 25 µM; in data set [7] it was above 10 µM. Besides, the IC50 was above 10 µM in data set [2] (setting [8]); 1.41 µM in data set [3]; 1.35 µM in data set [4]; 2.69 µM in data set [5] (setting [9]); 0.522 µM in data set [6].

On to `Cc1cccc(CN(Cc2cccc(C)n2)C[C@H]2CCCCO2)n1`, for which the values for the 50% inhibitory concentration (IC50) at 72 h in data set [1] and in data set [7] were above 25 µM and above 10 µM, respectively. In addition, the IC50 in data set [2] (setting [8]) is 2.34 µM; in data set [3], 0.275 µM; in data set [4], 0.676 µM; in data set [5] (setting [9]), 0.229 µM; in data set [6], 1.32 µM.
